From patent publication US7482024B2, “Compositions comprising an active agent” (Nektar Therapeutics, priority 1999, dated 2009)
Several values for one entry are separate records, joined by “and”; a condition that tells them apart may be missing. Equal values may be shown once. Entries after “also recorded” stand apart in the source; their conditions may differ. Peptide text beside a SMILES is read from it.

Assay: Surface tension measurement, Kruss Processor Tensiometer-K12, Wilhelmy-method (plate method)
Assay type: physicochemical
Conditions: for Surface tension, 25° C. Extrapolated Values at 2 mg/ml / Surface tension, 45° C. Extrapolated Values at 2 mg/ml: extrapolated to 2 mg/ml
Experimental: A “surface active” material is one having surface activity (measured, e.g., by surface tensiometry), as characterized by its ability to reduce the surface tension of the liquid in which it is dissolved. […] A peptide that is more surface active than another peptide is one which decreases the surface tension of water to a greater extent, when present in the liquid at the same concentration and measured under the same set of experimental conditions. The surface tension of several representative dipeptides, tripeptides, and proteins was measured at 25° C. and 45° C. to provide an indication of their relative surface activities. Surface tension measurements were carried out using a Kruss Processor Tensiometer-K12 with the Wilhelmy-method (Plate method). Solutions were prepared by dissolving either 0.05%, 0.2%, or 0.6% peptide/protein (by weight) along with an appropriate amount of raffinose by weight to provide final solutions having a 1.0% by weight solids content. Surface tension measurements at 25° C. and 45° C. were then obtained for the test solutions at three different time points (49 seconds, 100 seconds and 194 seconds).

[1] = 0.2% (wt/vol) plus raffinose to 1% total solids, 25° C., 49 s
[2] = 0.2% (wt/vol) plus raffinose to 1% total solids, 25° C., 100 s
[3] = 0.2% (wt/vol) plus raffinose to 1% total solids, 25° C., 194 s
[4] = Table 2: 0.20% (wt/vol) plus 0.80% raffinose, 25° C., 49 s
[5] = Table 2: 0.20% (wt/vol) plus 0.80% raffinose, 25° C., 100 s
[6] = Table 2: 0.20% (wt/vol) plus 0.80% raffinose, 25° C., 194 s

Leu-Tyr [reference compound]
Surface tension, Actual MEAN (0.71 mg/ml, 25° C.): 71.5 mN/m
Surface tension, Actual MEAN (0.71 mg/ml, 45° C.): 68.0 mN/m
Surface tension, Actual MEAN (2.13 mg/ml, 25° C.): 68.0 mN/m
Surface tension, Actual MEAN (2.13 mg/ml, 45° C.): 65.6 mN/m
Surface tension, Actual MEAN (6.40 mg/ml, 25° C.): 62.2 mN/m
Surface tension, Actual MEAN (6.40 mg/ml, 45° C.): 59.5 mN/m
Surface tension, 25° C. Extrapolated Values at 2 mg/ml (25° C.): 68.3 mN/m
Surface tension, 45° C. Extrapolated Values at 2 mg/ml (45° C.): 67.3 mN/m

CC(C)CC(N)C(=O)NC(CC(C)C)C(=O)NC(CC(C)C)C(=O)O (stereo not drawn) [tri-leucine, trileucine] (H-Leu-Leu-Leu-OH; configuration not given here)
Surface activity (ability to lower the surface tension of water), in words: highly surface active
Surface tension, Actual MEAN (0.68 mg/ml, 25° C.): 56.9 mN/m
Surface tension, Actual MEAN (0.68 mg/ml, 45° C.): 52.8 mN/m
Surface tension, Actual MEAN (2.03 mg/ml, 25° C.): 49.7 mN/m
Surface tension, Actual MEAN (2.03 mg/ml, 45° C.): 46.3 mN/m
Surface tension, Actual MEAN (6.10 mg/ml, 25° C.): 42.4 mN/m
Surface tension, Actual MEAN (6.10 mg/ml, 45° C.): 38.9 mN/m
Surface tension (ST) (0.05%, pH4, raffinose to 1% solids, 25° C., 49 s, listed as leu3): 59.9 mN/m and 60.4 mN/m
Surface tension (ST) (0.05%, pH4, raffinose to 1% solids, 25° C., 100 s, listed as leu3): 59.8 mN/m and 60.3 mN/m
Surface tension (ST) (0.05%, pH4, raffinose to 1% solids, 25° C., 194 s, listed as leu3): 59.7 mN/m and 60.2 mN/m
Surface tension (ST) (0.05%, pH4, raffinose to 1% solids, 45° C., 49 s, listed as leu3): 57.1 mN/m and 58.1 mN/m and 58 mN/m
Surface tension (ST) (0.05%, pH4, raffinose to 1% solids, 45° C., 100 s, listed as leu3): 57 mN/m and 57.9 mN/m and 57.8 mN/m
Surface tension (ST) (0.05%, pH4, raffinose to 1% solids, 45° C., 194 s, listed as leu3): 57 mN/m and 57.8 mN/m
Surface tension (ST) (0.05%, pH7, raffinose to 1% solids, 25° C., 49 s, listed as leu3): 60.1 mN/m and 60 mN/m and 60.2 mN/m
Surface tension (ST) (0.05%, pH7, raffinose to 1% solids, 25° C., 100 s, listed as leu3): 59.8 mN/m and 60 mN/m
Surface tension (ST) (0.05%, pH7, raffinose to 1% solids, 25° C., 194 s, listed as leu3): 59.7 mN/m and 59.8 mN/m
Surface tension (ST) (0.05%, pH7, raffinose to 1% solids, 45° C., 49 s, listed as leu3): 58.5 mN/m and 58.2 mN/m
Surface tension (ST) (0.05%, pH7, raffinose to 1% solids, 45° C., 100 s, listed as leu3): 58.4 mN/m and 58.2 mN/m and 58.1 mN/m
Surface tension (ST) (0.05%, pH7, raffinose to 1% solids, 45° C., 194 s, listed as leu3): 58.4 mN/m and 58.1 mN/m
Surface tension (ST) [1]: 51 mN/m
Surface tension (ST) [2]: 50.9 mN/m and 50.8 mN/m
Surface tension (ST) [3]: 50.9 mN/m and 50.7 mN/m
Surface tension (ST) (0.2%, pH4, raffinose to 1% solids, 25° C., 49 s): 51.4 mN/m
Surface tension (ST) (0.2%, pH4, raffinose to 1% solids, 25° C., 100 s, listed as leu3): 51.2 mN/m and 51.3 mN/m
Surface tension (ST) (0.2%, pH4, raffinose to 1% solids, 25° C., 194 s, listed as leu3): 51.1 mN/m and 51.2 mN/m
Surface tension (ST) (0.2%, pH4, raffinose to 1% solids, 45° C., 49 s, listed as leu3): 47.9 mN/m and 47.2 mN/m
Surface tension (ST) (0.2%, pH4, raffinose to 1% solids, 45° C., 100 s, listed as leu3): 47.5 mN/m and 47.2 mN/m and 47.3 mN/m
Surface tension (ST) (0.2%, pH4, raffinose to 1% solids, 45° C., 194 s, listed as leu3): 47.4 mN/m and 47.3 mN/m and 47.1 mN/m
Surface tension (ST) (0.2%, pH7, raffinose to 1% solids, 25° C., 49 s, listed as leu3): 51 mN/m and 50.9 mN/m and 50.7 mN/m
Surface tension (ST) (0.2%, pH7, raffinose to 1% solids, 25° C., 100 s, listed as leu3): 50.8 mN/m and 50.7 mN/m and 50.5 mN/m
Surface tension (ST) (0.2%, pH7, raffinose to 1% solids, 25° C., 194 s, listed as leu3): 50.7 mN/m and 50.6 mN/m and 50.4 mN/m
Surface tension (ST) (0.2%, pH7, raffinose to 1% solids, 45° C., 49 s, listed as leu3): 58.5 mN/m and 58.2 mN/m
Surface tension (ST) (0.2%, pH7, raffinose to 1% solids, 45° C., 100 s, listed as leu3): 58.4 mN/m and 58.2 mN/m and 58.1 mN/m
Surface tension (ST) (0.2%, pH7, raffinose to 1% solids, 45° C., 194 s, listed as leu3): 58.4 mN/m and 58.1 mN/m
Surface tension (ST) (0.6%, pH4, raffinose to 1% solids, 25° C., 49 s, listed as leu3): 44.2 mN/m and 44.3 mN/m
Surface tension (ST) (0.6%, pH4, raffinose to 1% solids, 25° C., 100 s, listed as leu3): 44.1 mN/m and 44.2 mN/m
Surface tension (ST) (0.6%, pH4, raffinose to 1% solids, 25° C., 194 s, listed as leu3): 44 mN/m and 44.2 mN/m and 44.1 mN/m
Surface tension (ST) (0.6%, pH4, raffinose to 1% solids, 45° C., 49 s, listed as leu3): 40.9 mN/m and 41.1 mN/m
Surface tension (ST) (0.6%, pH4, raffinose to 1% solids, 45° C., 100 s, listed as leu3): 40.9 mN/m and 41 mN/m
Surface tension (ST) (0.6%, pH4, raffinose to 1% solids, 45° C., 194 s, listed as leu3): 40.8 mN/m and 40.9 mN/m
Surface tension (ST) (0.6%, pH7, raffinose to 1% solids, 25° C., 49 s, listed as leu3): 43.7 mN/m and 43.8 mN/m
Surface tension (ST) (0.6%, pH7, raffinose to 1% solids, 25° C., 100 s): 43.7 mN/m
Surface tension (ST) (0.6%, pH7, raffinose to 1% solids, 25° C., 194 s, listed as leu3): 43.6 mN/m and 43.7 mN/m
Surface tension of water lowered to (concentration of 0.68 mg/ml): about 57 mN/m
Surface tension of water lowered to (concentration of 1.20 mg/ml, water about 72 mN/m): 42 mN/m
Surface tension, 25° C. Extrapolated Values at 2 mg/ml (25° C.): 49.7 mN/m
Surface tension, 45° C. Extrapolated Values at 2 mg/ml (45° C.): 46.3 mN/m

dileucine [di-leucine]
Surface activity (ability to lower the surface tension of water), in words: highly surface active; also recorded: more effective than any of the other dimers examined in reducing the surface tension of water
Surface tension, Actual MEAN (1.51 mg/ml, 25° C.): 61.5 mN/m
Surface tension, Actual MEAN (1.51 mg/ml, 45° C.): 53.2 mN/m
Surface tension, Actual MEAN (4.53 mg/ml, 25° C.): 54.9 mN/m
Surface tension, Actual MEAN (4.53 mg/ml, 45° C.): 48.2 mN/m
Surface tension, Actual MEAN (13.60 mg/ml, 25° C.): 46.6 mN/m
Surface tension, Actual MEAN (13.60 mg/ml, 45° C.): 42.7 mN/m
Surface tension (ST) [1]: 58.4 mN/m and 58.7 mN/m and 60.1 mN/m
Surface tension (ST) [2]: 58.1 mN/m and 58.3 mN/m and 59.8 mN/m
Surface tension (ST) [3]: 57.9 mN/m and 58.2 mN/m and 59.7 mN/m
Surface tension, 25° C. Extrapolated Values at 2 mg/ml (25° C.): 60.4 mN/m
Surface tension, 45° C. Extrapolated Values at 2 mg/ml (45° C.): 52.4 mN/m

tri-valine [reference compound]
Surface activity (ability to lower the surface tension of water), in words: not particularly effective at lowering the surface tension of water
Surface tension (ST) [4]: 68.8 mN/m and 68.7 mN/m
Surface tension (ST) [5]: 68.8 mN/m and 68.7 mN/m
Surface tension (ST) [6]: 68.8 mN/m and 68.7 mN/m

Ala-Val-Leu [reference compound]
Surface tension, Actual MEAN (0.97 mg/ml, 25° C.): 67.5 mN/m
Surface tension, Actual MEAN (0.97 mg/ml, 45° C.): 60.3 mN/m
Surface tension, Actual MEAN (2.90 mg/ml, 25° C.): 62.8 mN/m
Surface tension, Actual MEAN (2.90 mg/ml, 45° C.): 57.7 mN/m
Surface tension, Actual MEAN (8.70 mg/ml, 25° C.): 55.7 mN/m
Surface tension, Actual MEAN (8.70 mg/ml, 45° C.): 53.8 mN/m
Surface tension, 25° C. Extrapolated Values at 2 mg/ml (25° C.): 65 mN/m
Surface tension, 45° C. Extrapolated Values at 2 mg/ml (45° C.): 58.9 mN/m

leu-leu-ala
Surface tension, Actual MEAN (0.76 mg/ml, 25° C.): 60.7 mN/m
Surface tension, Actual MEAN (0.76 mg/ml, 45° C.): 58.3 mN/m
Surface tension, Actual MEAN (2.27 mg/ml, 25° C.): 43.5 mN/m
Surface tension, Actual MEAN (2.27 mg/ml, 45° C.): 48.2 mN/m
Surface tension, Actual MEAN (6.80 mg/ml, 25° C.): 39.9 mN/m
Surface tension, Actual MEAN (6.80 mg/ml, 45° C.): 48.4 mN/m
Surface tension, 25° C. Extrapolated Values at 2 mg/ml (25° C.): 46.6 mN/m
Surface tension, 45° C. Extrapolated Values at 2 mg/ml (45° C.): 49.8 mN/m

di-valine [reference compound]
Surface activity (ability to lower the surface tension of water), in words: not particularly effective at lowering the surface tension of water
Surface tension (ST) [4]: 71.7 mN/m and 71.6 mN/m
Surface tension (ST) [5]: 71.6 mN/m
Surface tension (ST) [6]: 71.6 mN/m
